Experimental data reported in patent publication US20260021167A1, “COMPOSITIONS AND METHODS FOR TREATING OR PREVENTING NEURODEGENERATIVE DISEASES” (Delaware State University, priority 2022, published 2026).

What was measured:
SENP-1 [1] = target: T1, SENP-1 (Rattus norvegicus, UniProt A0A0G2JVG1); assay: Western blot of SENP-1 level in PFF-exposed N27p cells; format: cell-based; settings: PFF exposure, compared with PFF only
T1 construct: endogenous in cells; host or cells: N27p (N27 parental) rat dopaminergic cells
T1 sequence (A0A0G2JVG1 1-672): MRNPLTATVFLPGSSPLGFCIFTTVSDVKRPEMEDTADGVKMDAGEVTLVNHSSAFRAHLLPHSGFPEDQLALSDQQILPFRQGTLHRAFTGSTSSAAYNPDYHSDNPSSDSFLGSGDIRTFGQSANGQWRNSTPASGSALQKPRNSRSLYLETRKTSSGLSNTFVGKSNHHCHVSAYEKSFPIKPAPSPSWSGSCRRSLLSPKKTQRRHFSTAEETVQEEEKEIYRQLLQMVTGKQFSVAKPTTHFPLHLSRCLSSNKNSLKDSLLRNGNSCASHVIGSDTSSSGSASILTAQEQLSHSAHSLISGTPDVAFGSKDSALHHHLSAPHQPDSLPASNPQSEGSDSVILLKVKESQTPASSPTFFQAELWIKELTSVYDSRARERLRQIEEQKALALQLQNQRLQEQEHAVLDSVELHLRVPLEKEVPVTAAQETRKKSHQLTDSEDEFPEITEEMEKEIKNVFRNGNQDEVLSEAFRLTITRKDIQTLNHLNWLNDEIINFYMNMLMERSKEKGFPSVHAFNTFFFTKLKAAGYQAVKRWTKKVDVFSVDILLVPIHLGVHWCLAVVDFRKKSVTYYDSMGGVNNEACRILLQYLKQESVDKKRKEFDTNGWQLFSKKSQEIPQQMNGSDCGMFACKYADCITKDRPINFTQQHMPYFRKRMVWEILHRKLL
Description: (§1) A) The RNA interference suppressed the expression level of SENP-1, which enhanced SUMO-1 level. […] One-Way ANOVA, Dunnett's test was applied for statistical analysis in comparison with PFF only (#). *: p<0.05, **: p<0.01, p<0.001 and n.s.: not significant.

SENP-1 [2] = target: T2, SENP-1 (Mus musculus, UniProt P59110); assay: Western blot of SENP-1 in brain tissue extracts of PFF-injected mice; format: in vivo; settings: vs PFF only
T2 construct: from tissue; host or cells: mouse brain: midbrain (MB) and striatum (STR) extracts
T2 sequence (P59110 1-640): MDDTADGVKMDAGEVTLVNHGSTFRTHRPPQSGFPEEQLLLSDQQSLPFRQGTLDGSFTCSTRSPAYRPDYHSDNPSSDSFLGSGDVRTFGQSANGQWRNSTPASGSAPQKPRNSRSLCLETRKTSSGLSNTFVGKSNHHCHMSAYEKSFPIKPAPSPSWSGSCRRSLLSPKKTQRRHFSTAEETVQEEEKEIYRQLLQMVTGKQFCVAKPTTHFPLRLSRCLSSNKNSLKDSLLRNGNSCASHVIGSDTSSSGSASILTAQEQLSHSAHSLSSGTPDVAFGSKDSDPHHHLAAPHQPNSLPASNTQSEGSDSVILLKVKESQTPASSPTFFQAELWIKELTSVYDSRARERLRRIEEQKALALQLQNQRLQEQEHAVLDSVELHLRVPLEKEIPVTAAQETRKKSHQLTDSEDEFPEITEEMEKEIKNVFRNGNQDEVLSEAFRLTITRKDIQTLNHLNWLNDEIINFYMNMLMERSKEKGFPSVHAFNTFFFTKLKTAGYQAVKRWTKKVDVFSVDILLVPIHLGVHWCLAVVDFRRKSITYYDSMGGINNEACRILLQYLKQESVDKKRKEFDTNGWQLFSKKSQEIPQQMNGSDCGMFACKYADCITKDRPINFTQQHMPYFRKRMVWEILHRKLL
Experimental: (§2) A mouse model of Parkinson's disease is C57BL/6 male or female mice (50% each) injected with 5 μg of mouse PFF at 12 months old, followed by a treatment below for 6-7 weeks: • 1) without PFF injection, followed by vehicle (control, n=7); • 2) PFF injection, followed by vehicle (PFF only: control, n=8); • 3) PFF injection, followed by daily 10 mg/kg Momordin gavage (n=7-8); • 4) PFF injection, followed by daily 50 mg/kg Momordin gavage (n=7-8).
(§3) Immunoblot Analyses. A total of three protein extractions were performed. In the first extraction, a gentle RIPA buffer containing the low concentration of detergent (25 mM Tris-HCL, 150 mM NaCl, 1% NP-40, 1% sodium deoxycholate and 0.1% SDS) was added with phosphatase inhibitors (100 μL for 10 mL) and 5 mM EDTA. The mixture was sonicated and centrifuged at 14,000 rpm for 10 min. The supernatant was collected for measuring the levels of phosphorylated α-syn, SENP-1 or SUMO-1 conjugated proteins for different groups. […] The primary antibodies pertaining to each protein analyzed were diluted at 1:1000 (p-Ser-129-α-synuclein, Cell signaling; SENP-1, SAB4501345, EMD) and incubated at 4° C. overnight. […] ImageJ was used to analyze specific bands on each blot and measured against the loading control (β-actin) for normalizing each band intensity.

[3] = test system: phosphorylated α-synuclein; assay: Western blot of phosphorylated α-synuclein in brain tissue extracts of PFF-injected mice; format: in vivo, mouse; settings: both doses, vs PFF only
Experimental: as §2, §3

SUMO-1 [4] = assay: Western blot of SUMO-1 level in PFF-exposed N27p cells; format: cell-based, rat; settings: PFF exposure, compared with PFF only
Description: as §1

SUMO-1 [5] = assay: Western blot of SUMO-1 in brain tissue extracts of PFF-injected mice; format: in vivo, mouse; settings: vs PFF only
Experimental: as §2, §3

CC1(C)CC[C@]2(C(=O)O)CC[C@]3(C)C(=CC[C@@H]4[C@@]5(C)CC[C@H](O[C@@H]6O[C@H](C(=O)O)[C@@H](O)[C@H](O[C@@H]7OC[C@@H](O)[C@H](O)[C@H]7O)[C@H]6O)C(C)(C)[C@@H]5CC[C@]43C)[C@@H]2C1 [Momordin lc]
level of SENP-1 (Western blot) (SENP-1 [1]): reduced the level of SENP-1
PFF-induced SENP-1 in the MB (Western blot, tissue extracts) (SENP-1 [2]; midbrain): reduced
PFF-induced SENP-1 in the STR (Western blot, tissue extracts) (SENP-1 [2]; striatum): reduced
phosphorylated α-synuclein in the MB (Western blot, tissue extracts) ([3]; midbrain): reversed
phosphorylated α-synuclein in the STR (Western blot, tissue extracts) ([3]; striatum): reversed
level of SUMO-1 (Western blot) (SUMO-1 [4]): increased level of SUMO-1
level of SUMO-1 in the MB (Western blot, tissue extracts) (SUMO-1 [5]; midbrain): enhanced level of SUMO-1
level of SUMO-1 in the STR (Western blot, tissue extracts) (SUMO-1 [5]; striatum): enhanced level of SUMO-1
